pEC50: −log10 of the molar value.
Columns and labels:
Assay type in all cases: functional, organism-based
Plasmodium falciparum [1] = assay: (§1) Antimalarial activity as reduced parasitaemia after 72 hrs against chloroquine-resistant Plasmodium falciparum K1 infected human O+ erythrocytes by DNA stain without pepstatin; conditions: K1, 72 h
Plasmodium falciparum [2] = assay: as §1; conditions: K1, 72 h; remark: listed apart in the source
Plasmodium falciparum [3] = assay: Antimalarial activity as reduced parasitaemia after 72 hrs against chloroquine-sensitive Plasmodium falciparum 3D7 infected human O+ erythrocytes by DNA stain without pepstatin; conditions: 3D7, 72 h
Plasmodium falciparum [4] = assay: Antimalarial activity as reduced parasitaemia after 72 hrs against chloroquine-sensitive Plasmodium falciparum 3D7 infected human O+ erythrocytes by DNA stain with pepstatin; conditions: 3D7, 72 h

Structure (SMILES) | pEC50 (Plasmodium falciparum [1]) | pEC50 (Plasmodium falciparum [2]) | pEC50 (Plasmodium falciparum [3]) | pEC50 (Plasmodium falciparum [4])
CCCC/C(=N\NC(N)=S)c1ccc(Cl)c(Cl)c1 | < 4.52 | < 4.52 | < 4.52 | < 4.52
Cc1ccc(/C(=N/NC(N)=S)c2ccccc2)cc1 | < 4.52 | < 4.52 | < 4.52 | < 4.52
Cc1ccc(/C(=N/NC(N)=S)c2cccc(C(F)(F)F)c2)cc1 | < 4.52 | < 4.52 | < 4.52 | 4.52
CC(O)CN1CNc2c(NCc3ccc(Cl)c(Cl)c3)nc(C#N)nc21 (configuration not stated) | < 4.52 | < 4.52 | < 4.52 | 4.52
N#Cc1nc(NCc2ccc(Cl)c(Cl)c2)c2c(n1)N(CC(O)CO)CN2 (configuration not stated) | < 4.52 | < 4.52 | < 4.52 | < 4.52
N#Cc1nc(NCc2ccc(Cl)c(Cl)c2)c2c(n1)N(Cc1ccccc1)CN2 | 4.52 | < 4.52 | < 4.52 | 4.52
COCCCN1CNc2c(NCc3ccc(Cl)c(Cl)c3)nc(C#N)nc21 | < 4.52 | < 4.52 | < 4.52 | 4.52
COc1ccc(CN2CNc3c(NCc4ccc(Cl)cc4)nc(C#N)nc32)cc1 | < 4.52 | < 4.52 | < 4.52 | 4.52
N#Cc1nc(NCc2ccc(Cl)cc2)c2c(n1)N(Cc1cccc(C(F)(F)F)c1)CN2 | 4.52 | < 4.52 | < 4.52 | 4.52
COC(CCN1CNc2c(NCc3ccc(Cl)c(Cl)c3)nc(C#N)nc21)OC | < 4.52 | < 4.52 | < 4.52 | 4.52
N#Cc1nc(NCc2ccc(Cl)c(Cl)c2)c2c(n1)N(CCCC(=O)O)CN2 | < 4.52 | < 4.52 | < 4.52 | < 4.52
N#Cc1nc(NCc2cccc(-c3cc(Cl)cc(Cl)c3)c2)c2ncn(CCCO)c2n1 | < 4.52 | < 4.52 | < 4.52 | < 4.52
N#Cc1nc(NCc2cccc(-c3ccc(Cl)c(Cl)c3)c2)c2ncn(CCCO)c2n1 | < 4.52 | < 4.52 | < 4.52 | < 4.52
N#Cc1nc(NCc2ccc(Br)cc2)c2c(n1)N(CCCc1ccccc1)CN2 | < 4.52 | < 4.52 | < 4.52 | < 4.52
CCCCN1CNc2c(NCc3ccc(Cl)c(Cl)c3)nc(C#N)nc21 | < 4.52 | < 4.52 | < 4.52 | 4.52
N#Cc1nc(NCc2ccc(-c3ccco3)cc2)c2ncn(CCCO)c2n1 | 4.92 | 4.89 | 4.74 | 4.92
Cc1cccc(/C(=N/NC(N)=S)c2cccc(F)c2)c1 | < 4.52 | < 4.52 | < 4.52 | < 4.52
N#Cc1nc(NCc2cccc(Cc3cccc(Cl)c3)c2)c2ncn(CCCO)c2n1 | < 4.52 | < 4.52 | < 4.52 | < 4.52
CN(C)c1cccc(-c2cccc(CNc3nc(C#N)nc4c3ncn4CCCO)c2)c1 | < 4.52 | < 4.52 | < 4.52 | < 4.52
N#Cc1nc(NCc2ccc(-c3cccnc3)cc2)c2ncn(CCCO)c2n1 | < 4.52 | < 4.52 | < 4.52 | < 4.52
Cc1ccc(/C(=N/NC(N)=S)c2cc(Cl)cc(Cl)c2)cc1 | < 4.52 | < 4.52 | < 4.52 | 4.52
COC(=O)c1cccc(-c2cccc(CNc3nc(C#N)nc4c3ncn4CCCO)c2)c1 | < 4.52 | < 4.52 | < 4.52 | < 4.52

Structure (SMILES) | pEC50 (Plasmodium falciparum [1]) | pEC50 (Plasmodium falciparum [2]) | pEC50 (Plasmodium falciparum [3]) | pEC50 (Plasmodium falciparum [4])
NC(=S)N/N=C(\c1cc(Cl)cc(Cl)c1)c1cccs1 | < 4.52 | < 4.52 | < 4.52 | 4.52
CC(=O)Nc1cccc(CNc2nc(C#N)nc3c2ncn3CCCO)c1 | 4.96 | 4.82 | 4.82 | 5.22
C=Cc1cccc(-c2cccc(CNc3nc(C#N)nc4c3ncn4CCCO)c2)c1 | < 4.52 | < 4.52 | < 4.52 | < 4.52
C=Cc1ccc(-c2cccc(CNc3nc(C#N)nc4c3ncn4CCCO)c2)cc1 | < 4.52 | < 4.52 | < 4.52 | < 4.52
N#Cc1nc(NCc2cccc(-c3ccc4ccccc4c3)c2)c2ncn(CCCO)c2n1 | < 4.52 | < 4.52 | < 4.52 | 4.52
N#Cc1nc(NCc2cccc(-c3ccco3)c2)c2ncn(CCCO)c2n1 | < 4.52 | < 4.52 | < 4.52 | < 4.52
N#Cc1nc(NCc2cccc(-c3ccsc3)c2)c2ncn(CCCO)c2n1 | < 4.52 | < 4.52 | < 4.52 | < 4.52
N#Cc1nc(NCc2cccc(-c3ccoc3)c2)c2ncn(CCCO)c2n1 | < 4.52 | < 4.52 | < 4.52 | < 4.52
CC(C)Oc1c(Br)cccc1-c1cccc(CNc2nc(C#N)nc3c2ncn3CCCO)c1 | < 4.52 | < 4.52 | 4.52 | 4.52
COc1cc(OC)c(-c2cccc(CNc3nc(C#N)nc4c3ncn4CCCO)c2)cn1 | < 4.52 | < 4.52 | < 4.52 | < 4.52
N#Cc1nc(NCc2ccc(-c3cccc(Cl)c3)cc2)c2ncn(CCCO)c2n1 | 4.74 | 4.70 | 4.70 | 4.85
N#Cc1nc(NCc2ccc(Cl)c(Cl)c2)c2c(n1)N(CCCO)CN2 | < 4.52 | < 4.52 | < 4.52 | < 4.52
COCC(CN1CNc2c(NCc3ccc(Cl)c(Cl)c3)nc(C#N)nc21)OC (configuration not stated) | < 4.52 | < 4.52 | < 4.52 | 4.52
N#Cc1nc(NCc2ccc(Cl)c(Cl)c2)c2c(n1)N(Cc1cccc(C(F)(F)F)c1)CN2 | 4.62 | 4.52 | 4.57 | 4.52
COc1ccc(-c2cccc(CNc3nc(C#N)nc4c3ncn4CCCO)c2)cc1 | < 4.52 | < 4.52 | < 4.52 | < 4.52
N#Cc1nc(NCc2cccc(-c3ccccc3)c2)c2ncn(CCCO)c2n1 | < 4.52 | < 4.52 | < 4.52 | 4.52
N#Cc1nc(NCc2cccc(-c3cccnc3)c2)c2ncn(CCCO)c2n1 | < 4.52 | < 4.52 | < 4.52 | < 4.52
N#Cc1nc(NCc2cccc(-c3cccs3)c2)c2ncn(CCCO)c2n1 | < 4.52 | < 4.52 | < 4.52 | < 4.52
N#Cc1nc(NCc2cccc(-c3cc4ccccc4n3S(=O)(=O)c3ccccc3)c2)c2ncn(CCCO)c2n1 | 4.52 | < 4.52 | < 4.52 | 4.52
N#Cc1nc(NCc2cccc(-c3cn(S(=O)(=O)c4ccccc4)c4ccccc34)c2)c2ncn(CCCO)c2n1 | 4.52 | < 4.52 | < 4.52 | 4.52
N#Cc1nc(NCc2cccc(-c3ccc4cc[nH]c4c3)c2)c2ncn(CCCO)c2n1 | < 4.52 | < 4.52 | < 4.52 | < 4.52
